Data set [1] has as its system auricle of hairless mouse (HR-1, female). Nature of the data set: External blood circulation enhancing action: vasodilatory effect (red spots) on auricle of hairless mouse. Particulars: for Vasodilatory effect for hairless mouse (red spots, visual): applied to right ear; for Vasodilating effect: 5 wt % solution, solvents as in Tables 2 and 3. Set-up: key to Vasodilatory effect for hairless mouse (red spots, visual): ◯: clear red spots can be confirmed; Δ: weak red spots can be confirmed; x: no development of red spots. The format is in vivo. The protocol: The compound of each Example and capsaicin analog were compared for vasodilatory effect using auricle of hairless mouse. [Test method] A sample was applied to the right ear of hairless mouse (HR-1, female), and a control was applied to the left ear. Presence or absence of red spots development was visually evaluated, and evaluated according to the following indices. ◯: clear red spots can be confirmed Δ: weak red spots can be confirmed x: no development of red spots The samples were dissolved in liquid paraffin or ethanol. samples: Control: liquid paraffin or ethanol

A short description of data set [2]: Stability on contact with silica gel, yield (recovery rate) of PTLC purification as index. The format is physicochemical. As to the method:
Using vanillyl alcohol (1.70 g, 11.0 mmol) instead of piperonyl alcohol, and n-decanoic acid (1.72 g, 10 mmol) instead of 8-methylnonanoic acid in Example 1, a reaction similar to Example 1 was performed.
Using the yield (recovery rate) of purification by silica gel chromatography (PTLC) as an index, the stability of each Example compound was confirmed.

The record followed here is patent US7981460B2, “Substituted benzyl ester derivative and use thereof” (Ajinomoto Co., Inc., priority 2006, dated 2011).

Values joined by “and” are separate entries in the source; they are usually repeats but may differ in a detail not shown here. Identical values can stand only once.

On to `COc1cc(CNC(=O)CCCC/C=C/C(C)C)ccc1O` [capsaicin, reference compound], for which the “Vasodilatory effect for hairless mouse (red spots, visual)” value (“Vasodilatory effect for hairless mouse” for short) in data set [1] (1 wt % in liquid paraffin), in data set [1] (5 wt % in ethanol) and in data set [1] (5 wt % in liquid paraffin) was “∘” throughout.

On to `COc1cc(COC(=O)CCCC/C=C/C(C)C)ccc1O` [capsiate, 4-hydroxy-3-methoxybenzyl (E)-8-methyl-6-nonenoate, reference compound], for which the “Vasodilatory effect for hairless mouse” value in data set [1] (1 wt % in liquid paraffin) was “Δ”; in data set [1] (5 wt % in ethanol) it was “∘”; in data set [1] (5 wt % in liquid paraffin) it was “∘”.

As to `CC(C)CCCCCCC(=O)OCc1ccc2c(c1)OCO2` [compound A, Piperonyl 8-methylnonanoate], the “Vasodilatory effect for hairless mouse” value in data set [1] (5 wt % in liquid paraffin) was “Δ”. The “Vasodilating effect” value in data set [1] is given as “weak vasodilating effect”. Moreover, in data set [2], the “Stability on purification by PTLC (contact with silica gel), in words” value (from here on “Stability on purification by PTLC”) is “stabler than vanillyl decanoate even upon contact with silica gel” and the “Yield (recovery rate) after purification by PTLC, index of stability” value (shortened to “Yield (recovery rate) … index of stability”) is 84.3%.

Consider `CC(C)CCCCCC(=O)OCc1ccc2c(c1)OCO2` [compound A-1, Piperonyl 7-methyloctanoate], for which the “Vasodilatory effect for hairless mouse” value in data set [1] (5 wt % in ethanol) and in data set [1] (5 wt % in liquid paraffin) was “x” each time. The “Vasodilating effect” value in data set [1] is “did not show a vasodilating effect”.

Regarding `CC(C)CCCCC(=O)OCc1ccc2c(c1)OCO2` [compound A-2, Piperonyl 6-methylheptanoate], the “Vasodilatory effect for hairless mouse” value in data set [1] (5 wt % in ethanol) and in data set [1] (5 wt % in liquid paraffin) was “x” throughout. Further, the “Vasodilating effect” value in data set [1] was “did not show a vasodilating effect”.

Turning to `COc1ccc(COC(=O)CCCCCCC(C)C)cc1O` [compound B, Isovanillyl 8-methylnonanoate], in data set [1] (5 wt % in liquid paraffin), the “Vasodilatory effect for hairless mouse” value is recorded as “∘”. In addition, the “Vasodilating effect” value in data set [1] is recorded as “strong vasodilating effect”. In data set [2], the “Stability on purification by PTLC” value was “not decomposed even after purification by PTLC” and the “Yield (recovery rate) … index of stability” value is on record as 81.0%.

Take `COc1ccc(COC(=O)CCCCCC(C)C)cc1O` [compound B-1, Isovanillyl 7-Methyloctanoate]: the “Vasodilatory effect for hairless mouse” value in data set [1] (5 wt % in liquid paraffin) was “Δ”. The “Vasodilating effect” value in data set [1] is “weak vasodilating effect”.

Turning to `CCC(C)CCCCCC(=O)OCc1ccc(OC)c(O)c1` (stereo not shown) [compound B-2, Isovanillyl 7-methyl Nonanoate], in data set [1] (5 wt % in ethanol), the “Vasodilatory effect in words” value was “vasodilatory effect was observed” and the “Vasodilatory effect for hairless mouse” value was “∘”. The “Vasodilatory effect in words” value in data set [1] (5 wt % in ethanol, listed as Compound B-2) was “showed a vasodilating effect”. Also, in data set [1] (5 wt % in liquid paraffin), the “Vasodilatory effect, note in words (onset, duration)” value was “did not show a vasodilating effect” and the “Vasodilatory effect for hairless mouse” value is on record as “x”.

Consider `COc1ccc(COC(=O)CCCCCCC(C)C)cc1` [compound C, 4-methoxybenzyl 8-methylnonanoate], for which, in data set [1] (5 wt % in liquid paraffin), the “Vasodilatory effect for hairless mouse” value is given as “∘”. The “Vasodilating effect” value in data set [1] is “strong vasodilating effect”. In data set [2], the “Stability on purification by PTLC” value is “not decomposed even after purification by PTLC” and the “Yield (recovery rate) … index of stability” value is reported as 90.2%.

For the molecule `COc1ccc(COC(=O)CCCCCC(C)C)cc1` [compound C-1, 4-methoxybenzyl 7-methyloctanoate], the “Vasodilatory effect for hairless mouse” value in data set [1] (5 wt % in liquid paraffin) was “Δ”. For the same molecule, in data set [1], the “Vasodilating effect” value was “weak vasodilating effect”.

Turning to `CCC(C)CCCCC(=O)OCc1ccc(OC)cc1` (stereo not shown) [compound C-2, 4-methoxybenzyl 6-methyloctanoate], the “Vasodilatory effect for hairless mouse” value in data set [1] (5 wt % in ethanol) and in data set [1] (5 wt % in liquid paraffin) was “x” each time. Further, in data set [1], the “Vasodilating effect” value is on record as “did not show a vasodilating effect”.

For the molecule `COc1ccc(COC(=O)CCCCCCC(C)C)cc1OC` [compound D, Veratryl 8-methylnonanoate], the “Vasodilatory effect for hairless mouse” value in data set [1] (5 wt % in liquid paraffin) is on record as “x”. Also, in data set [1], the “Vasodilating effect” value was “did not show a vasodilating effect”. Also, in data set [2], the “Stability on purification by PTLC” value is “not decomposed even after purification by PTLC” and the “Yield (recovery rate) … index of stability” value turned out to be 89.1%.

For `CC(C)CCCCCCC(=O)OCc1ccc(O)cc1` [compound F, 4-hydroxybenzyl 8-methylnonanoate], the “Vasodilatory effect for hairless mouse” value in data set [1] (5 wt % in liquid paraffin) was “Δ”. For the same molecule, in data set [1], the “Vasodilating effect” value was “weak vasodilating effect”.

Turning to `COc1cc(COC(=O)CCCCCCC(C)C)ccc1OC(C)=O` [compound G, 4-acetoxy-3-methoxybenzyl 8-methylnonanoate], in data set [1] (5 wt % in liquid paraffin), the “Vasodilatory effect for hairless mouse” value is listed as “∘”. Besides, the “Vasodilating effect” value in data set [1] is listed as “strong vasodilating effect”. Also, in data set [2], the “Stability on purification by PTLC” value is listed as “not decomposed even after purification by PTLC”; the “Yield (recovery rate) … index of stability” value is 82.9% and 85.7%.

Consider `COc1cc(COC(=O)CCCC/C=C/C(C)C)ccc1OC(C)=O` [compound G-1, 4-acetoxy-3-methoxybenzyl (E)-8-methyl-6-nonenoate], for which the “Vasodilatory effect for hairless mouse” value in data set [1] (5 wt % in liquid paraffin) is on record as “∘”. Also, the “Vasodilating effect” value in data set [1] was “strong vasodilating effect”.

As for `CCOc1cc(COC(=O)CCCCCCC(C)C)ccc1O` [compound H, 3-ethoxy-4-hydroxybenzyl 8-methylnonanoate], in data set [1] (5 wt % in liquid paraffin), the “Vasodilatory effect for hairless mouse” value is given as “∘”. Further, the “Vasodilating effect” value in data set [1] was “clear vasodilating effect, though the expression of the effect was slow”.

Take `COc1cc(COC(=O)CCCCCCC(C)C)ccc1O` [dihydrocapsiate, 4-hydroxy-3-methoxybenzyl 8-methylnonanoate, reference compound]: the “Vasodilatory effect for hairless mouse” value in data set [1] (1 wt % in liquid paraffin) was “Δ”; in data set [1] (5 wt % in liquid paraffin) it was “∘”.

Consider `COc1cc(COC(=O)CCCCCC(C)C)ccc1O` [nordihydrocapsiate, 4-hydroxy-3-methoxybenzyl 7-methyl-octanoate, reference compound], for which the results for the “Vasodilatory effect for hairless mouse” value in data set [1] (1 wt % in liquid paraffin) and in data set [1] (5 wt % in liquid paraffin) were “Δ” and “∘”, respectively.

Regarding `COc1cc(CO)ccc1O` [vanillyl alcohol, reference compound], the “Vasodilatory effect for hairless mouse” value in data set [1] (5 wt % in ethanol) and in data set [1] (5 wt % in liquid paraffin) was “x” in each case.

With `CCCCCCCCCC(=O)OCc1ccc(O)c(OC)c1` [vanillyl decanoate, reference compound], in data set [2], the “Stability on purification by PTLC” value is listed as “decomposed by the contact with silica gel” and the “Yield (recovery rate) … index of stability” value came out at 43.1%.
